One test concerns the target T1, IKKε (Homo sapiens, UniProt Q14164).
T1 sequence (Q14164 1-716): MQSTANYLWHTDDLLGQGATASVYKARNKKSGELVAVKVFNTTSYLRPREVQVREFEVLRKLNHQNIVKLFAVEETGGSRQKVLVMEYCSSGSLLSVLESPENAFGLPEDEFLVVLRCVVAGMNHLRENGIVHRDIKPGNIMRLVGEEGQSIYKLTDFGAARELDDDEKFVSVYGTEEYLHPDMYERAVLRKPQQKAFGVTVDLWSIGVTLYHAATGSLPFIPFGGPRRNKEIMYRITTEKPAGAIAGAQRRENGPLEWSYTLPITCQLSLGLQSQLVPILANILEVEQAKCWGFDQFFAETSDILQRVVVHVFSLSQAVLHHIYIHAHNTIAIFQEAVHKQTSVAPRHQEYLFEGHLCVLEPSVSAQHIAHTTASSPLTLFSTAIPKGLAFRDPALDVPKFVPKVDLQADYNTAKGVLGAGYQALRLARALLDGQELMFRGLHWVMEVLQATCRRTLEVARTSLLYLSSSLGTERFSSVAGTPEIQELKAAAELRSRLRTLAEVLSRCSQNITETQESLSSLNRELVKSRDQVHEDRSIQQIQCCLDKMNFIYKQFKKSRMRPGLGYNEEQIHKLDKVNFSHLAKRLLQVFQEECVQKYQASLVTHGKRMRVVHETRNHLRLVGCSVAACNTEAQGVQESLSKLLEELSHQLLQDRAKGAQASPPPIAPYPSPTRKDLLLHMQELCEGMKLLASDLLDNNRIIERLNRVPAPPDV
Kind of test: IKKε biochemical assay. The settings on record: 10 point 1:4 dose response, 30 uM top concentration, 90 min at 25° C., LabChip EZ Reader II; read-out: IKKε_IC50. The essentials: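 Compounds in 1% DMSO final were incubated with IKKε enzyme and substrate at 25° C. for 90 min, then stopped. Substrate and product peaks were resolved by LabChip EZ Reader II mobility-shift read-out. Staurosporine at 10 uM final served as the full-inhibition control.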

For another test, the target named is T2, TBK1 (Homo sapiens, UniProt Q9UHD2).
T2 sequence (Q9UHD2 1-729): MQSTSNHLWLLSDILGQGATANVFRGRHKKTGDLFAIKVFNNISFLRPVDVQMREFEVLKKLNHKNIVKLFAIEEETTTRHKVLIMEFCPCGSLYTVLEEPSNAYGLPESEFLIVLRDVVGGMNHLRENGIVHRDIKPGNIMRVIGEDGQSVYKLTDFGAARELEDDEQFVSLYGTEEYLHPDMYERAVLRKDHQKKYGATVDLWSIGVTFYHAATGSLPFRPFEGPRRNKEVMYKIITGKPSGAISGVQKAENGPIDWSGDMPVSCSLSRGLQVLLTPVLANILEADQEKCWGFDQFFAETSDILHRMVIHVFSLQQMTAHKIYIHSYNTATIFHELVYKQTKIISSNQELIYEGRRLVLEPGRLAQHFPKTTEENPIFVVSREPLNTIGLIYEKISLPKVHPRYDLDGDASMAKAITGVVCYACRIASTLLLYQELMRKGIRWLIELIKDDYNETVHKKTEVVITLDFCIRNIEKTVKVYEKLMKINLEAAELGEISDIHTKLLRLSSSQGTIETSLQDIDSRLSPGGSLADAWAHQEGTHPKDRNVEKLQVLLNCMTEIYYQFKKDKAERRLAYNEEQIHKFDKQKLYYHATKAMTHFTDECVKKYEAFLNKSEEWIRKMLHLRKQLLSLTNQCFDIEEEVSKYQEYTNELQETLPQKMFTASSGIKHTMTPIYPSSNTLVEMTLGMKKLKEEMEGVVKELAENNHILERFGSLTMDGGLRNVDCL
Kind of test: TBK biochemical assay. Conditions: 10 point 1:4 dose response, 30 uM top concentration, 90 min at 25° C., LabChip EZ Reader II; read-out: TBK1_IC50. The essentials:
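Substrate and product were separated and quantified by microfluidic mobility-shift read (LabChip). 10 uM staurosporine served as the full-inhibition control, and the reference compound was tested from 1 uM final.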

On to `COc1nc(Nc2nccc(-c3ccc(OC4CCN(C(=O)[C@@H](C)O)C4)c(C#N)c3)n2)ccc1N1CCN(C2COC2)CC1` (stereo partly drawn) [Example 184, 2-([1-[(2R)-2-hydroxypropanoyl]pyrrolidin-3-yl]oxy)-5-[2-([6-methoxy-5-[4-(oxetan-3-yl)piperazin-1-yl]pyridin-2-yl]amino)pyrimidin-4-yl]benzonitrile], for which the IC50 at IKKε and on TBK1 was 100 to 1000 nM in each case.
`N#Cc1cc(-c2ccnc(Nc3ccccn3)n2)ccc1OC1CCN(C(=O)[C@@H](O)CO)CC1(F)F` (stereo partly drawn) [Example 243, 2-[1-((S)-2,3-Dihydroxy-propionyl)-3,3-difluoro-piperidin-4-yloxy]-5-[2-(pyridin-2-ylamino)-pyrimidin-4-yl]-benzonitrile]: the IC50 on IKKε and at TBK1 was below 100 nM in each case.
As to `C[C@H](O)C(=O)N1CCC(Oc2ccc(-c3ccnc(Nc4ccc(N5CCN(C6COC6)CC5)cc4)n3)cc2C#N)C(F)(F)C1` (stereo partly drawn) [Example 138, 2-([3,3-difluoro-1-[(2S)-2-hydroxypropanoyl]piperidin-4-yl]oxy)-5-[2-([4-[4-(oxetan-3-yl)piperazin-1-yl]phenyl]amino)pyrimidin-4-yl]benzonitrile], the IC50 on IKKε and on TBK1 was below 100 nM in each case.
`COc1ccc(Nc2nccc(-c3ccc(OC4CCN(C(=O)[C@@H](O)CO)CC4(F)F)c(C#N)c3)n2)nc1OC` (stereo partly drawn) [Example 244, 2-[1-((S)-2,3-Dihydroxy-propionyl)-3,3-difluoro-piperidin-4-yloxy]-5-[2-(5,6-dimethoxy-pyridin-2-ylamino)-pyrimidin-4-yl]-benzonitrile]: the IC50 on IKKε and on TBK1 was below 100 nM each time.
For `COc1nc(Nc2nccc(-c3ccc(OC4CCN(C(=O)[C@@H](C)O)CC4(F)F)c(C#N)c3)n2)ccc1C1CCN(C2COC2)CC1` (stereo partly drawn) [Example 330, 2-([3,3-difluoro-1-[(2R)-2-hydroxypropanoyl]piperidin-4-yl]oxy)-5-[2-([6-methoxy-5-[1-(oxetan-3-yl)piperidin-4-yl]pyridin-2-yl]amino)pyrimidin-4-yl]benzonitrile], the IC50 at IKKε and on TBK1 was below 100 nM in each case.
In the case of `COc1nc(Nc2nccc(-c3cc(C#N)c(OC4CCOCC4)cn3)n2)ccc1C1CCN(C)CC1` [Example 45, 2-(2-[[6-methoxy-5-(1-methylpiperidin-4-yl)pyridin-2-yl]amino]pyrimidin-4-yl)-5-(oxan-4-yloxy)pyridine-4-carbonitrile], the IC50 on IKKε is 1000 to 5000 nM; at TBK1, above 5000 nM.
The like results for `COc1nc(Nc2nccc(-c3ccc(OC4CCOCC4)c(C#N)c3)n2)ccc1N1C[C@@H](C)O[C@@H](C)C1` [Example 37, 5-[2-([5-[cis-2,6-dimethylmorpholin-4-yl]-6-methoxypyridin-2-yl]amino)pyrimidin-4-yl]-2-(oxan-4-yloxy)benzonitrile] were, in that order, below 100 nM and below 100 nM.
The like results for `C[C@@H](O)C(=O)N1CCC(Oc2ccc(-c3ccnc(Nc4cccc(C5CCN(C(CO)CO)CC5)c4)n3)cc2C#N)C(F)(F)C1` (stereo partly drawn) [Example 158, 2-[3,3-Difluoro-1-((R)-2-hydroxy-propionyl)-piperidin-4-yloxy]-5-(2-{3-[1-(2-hydroxy-1-hydroxymethyl-ethyl)-piperidin-4-yl]-phenylamino}-pyrimidin-4-yl)-benzonitrile] were, in that order, below 100 nM and below 100 nM.
Taken in the same sequence, the figures for `COc1cc(Nc2nccc(-c3ccc(OC4CCOCC4)c(C#N)n3)n2)ncc1C(=O)N(C)C` [Example 24, 6-([4-[6-cyano-5-(oxan-4-yloxy)pyridin-2-yl]pyrimidin-2-yl]amino)-4-methoxy-N,N-dimethylpyridine-3-carboxamide] were 100 to 1000 nM and 100 to 1000 nM.
As to `COc1nc(Nc2nccc(-c3ccc(O[C@H]4CCN(C(=O)[C@@H](C)O)C[C@@H]4F)c(C#N)c3)n2)ccc1C1CCN(C2COC2)CC1` [Example 188, 2-[(3S,4S)-3-Fluoro-1-((R)-2-hydroxy-propionyl)-piperidin-4-yloxy]-5-[2-(2-methoxy-1′-oxetan-3-yl-1′,2′,3′,4′,5′,6′-hexahydro-[3,4′]bipyridinyl-6-ylamino)-pyrimidin-4-yl]-benzonitrile], the IC50 on IKKε and on TBK1 was below 100 nM in each case.
With `C[C@@H](O)C(=O)N1CC[C@H](Oc2ccc(-c3ccnc(Nc4ccc(N5CCN(C6COC6)CC5)cc4)n3)cc2C#N)C(F)(F)C1` [Example 142, 2-[[(4S)-3,3-difluoro-1-[(2R)-2-hydroxypropanoyl]piperidin-4-yl]oxy]-5-[2-([4-[4-(oxetan-3-yl)piperazin-1-yl]phenyl]amino)pyrimidin-4-yl]benzonitrile], the IC50 on IKKε and on TBK1 was below 100 nM each time.
Take `COc1nc(Nc2nccc(-c3ccc(OC4CCOCC4)c(C#N)c3)n2)ccc1C(=O)N(C)C` [Example 1, 6-([4-[3-cyano-4-(oxan-4-yloxy)phenyl]pyrimidin-2-yl]amino)-2-methoxy-N,N-dimethylpyridine-3-carboxamide]: the IC50 at IKKε and on TBK1 was below 100 nM in each case.
In the case of `COc1nc(Nc2nccc(-c3ccc(OC4CCN(C(=O)[C@H](C)O)CC4(F)F)c(C#N)c3)n2)ccc1N1CCN(C2COC2)C[C@@H]1C` (stereo partly drawn) [Example 131, 2-[3,3-Difluoro-1-((S)-2-hydroxy-propionyl)-piperidin-4-yloxy]-5-{2-[6-methoxy-5-((S)-2-methyl-4-oxetan-3-yl-piperazin-1-yl)-pyridin-2-ylamino]-pyrimidin-4-yl}-benzonitrile], the IC50 at IKKε and on TBK1 was below 100 nM throughout.
Turning to `COc1nc(Nc2nccc(-c3ccc(N4CC5(CCNCC5)C4)c(C#N)c3)n2)ccc1N1CCN(C2COC2)CC1` [Example 312, 2-(2,7-Diaza-spiro[3.5]non-2-yl)-5-{2-[6-methoxy-5-(4-oxetan-3-yl-piperazin-1-yl)-pyridin-2-ylamino]-pyrimidin-4-yl}-benzonitrile], the IC50 on IKKε and on TBK1 was 100 to 1000 nM throughout.
Take `COc1nc(Nc2nccc(-c3ccc(OC4CN(C(=O)[C@@H](C)O)C4)c(C#N)c3)n2)ccc1N1CCN(C2COC2)CC1` [Example 176, 2-([1-[(2R)-2-hydroxypropanoyl]azetidin-3-yl]oxy)-5-[2-([6-methoxy-5-[4-(oxetan-3-yl)piperazin-1-yl]pyridin-2-yl]amino)pyrimidin-4-yl]benzonitrile]: the IC50 on IKKε was 1000 to 5000 nM; at TBK1, 100 to 1000 nM.
The like results for `COc1nc(Nc2nccc(-c3ccc(OC4CNC4)c(C#N)c3)n2)ccc1N1CCN(C2COC2)CC1` [Example 174, 2-(azetidin-3-yloxy)-5-[2-([6-methoxy-5-[4-(oxetan-3-yl)piperazin-1-yl]pyridin-2-yl]amino)pyrimidin-4-yl]benzonitrile] were, in that order, below 100 nM and below 100 nM.
For `COc1nc(Nc2nccc(-c3ccc(OC4CCOCC4F)c(C#N)c3)n2)ccc1N1CCN(C2COC2)CC1` (stereo not drawn) [Example 170, 2-(3-Fluoro-tetrahydro-pyran-4-yloxy)-5-{2-[6-methoxy-5-(4-oxetan-3-yl-piperazin-1-yl)-pyridin-2-ylamino]-pyrimidin-4-yl}-benzonitrile], the IC50 on IKKε and at TBK1 was below 100 nM in each case.
As to `COc1nc(Nc2nccc(-c3ccc(OC4CCN(C(=O)c5cocn5)CC4)c(C#N)c3)n2)ccc1N1CCN(C)CC1` [Example 93, 5-(2-[[6-methoxy-5-(4-methylpiperazin-1-yl)pyridin-2-yl]amino]pyrimidin-4-yl)-2-([1-[(1,3-oxazol-4-yl)carbonyl]piperidin-4-yl]oxy)benzonitrile], the IC50 on IKKε and on TBK1 was below 100 nM in each case.

For the origin of these results see US20230019491A1, “PYRIMIDINE TBK/IKKe INHIBITOR COMPOUNDS AND USES THEREOF” (Merck Patent GmbH, priority 2017, published 2023).
